Where two headings read alike, the source gives them in different places.
Experiments:
[1] = test system: P. falciparum female gametocytes; test: P. falciparum Dual Gamete Formation Assay (PfDGFA), female readout (Pfs25-positive female gametes); type: cell-based, Plasmodium falciparum NF54; conditions: for Selectivity ratio F: HepG2 Tox50 versus female IC50; for inhibition at 2 µM / IC50: Plasmodium falciparum; for inhibition at 2 µM: 24h preincubation with gametocytes; for IC50: PfDGFA, 24 h incubation with gametocytes before induction, female gamete readout, read-out: Female IC50
Protocol: (§1) P. falciparum NF54 (originally isolated from an imported malaria case in the Netherlands in the 1980s; BEI Resources, cat. No. MRA-1000) strain asexual parasites were maintained between 0.3–5% parasitaemia by regular passage in complete culture medium (RPMI supplemented with 25 mM HEPES, 50 μg ml^−1 hypoxanthine, 4.8 g l^−1 NaHCO3, 2mM L-glutamine, 5% pooled type AB serum, 0.5% Albumax II (Gibco)) at 4% haematocrit in washed whole blood (National Blood and Transfusion Service or Centro de Transfusiones de la Comunidad de Madrid CTCM) under a 1% O2/3% CO2/96% N2 environment. Gametocytes were induced by seeding culture flasks at 2% parasitaemia/4% haematocrit and subjecting them to daily medium changes for 14 days whilst maintaining a temperature of 37°C at all times. On Day 14, the maturity of gametocytes was assessed by quantifying male gametogenesis (exflagellation). A 20 μl sample of gametocyte culture was mixed with equal volume of ookinete medium (complete culture medium supplemented with 0.1 μM xanthurenic acid) at room temperature and transferred to a haemocytometer. After 20 min at room temperature, exflagellation was accurately quantified as described in Delves et al. 2016 [17].
(§2) The Pf DGFA was performed as described in Delves et al. 2016 [17]. […] Plates were then incubated for 24 h at 37°C in a humidified box under a 1% O2/3% CO2/96% N2 gas mix. Gametogenesis was triggered by addition of 10 μl per well of ookinete medium + 0.27 μg ml^-1 Cy3-labelled anti-Pfs25 antibody. Plates were incubated on a metal block at 4°C for 4 min to ensure even cooling, then 28°C for a further 4 min. Exflagellation was recorded by capturing 10 frames over 1 s under brightfield illumination using a x4 objective with a 1.5x zoom (effectively x6) attached to an automated Nikon Ti fluorescence microscope. After recording exflagellation, plates were incubated for a further 24 h in the dark at 28°C to ensure maximal expression of Pfs25 by female gametes. The plates were then returned to the microscope and female gametes imaged at x6 using fluorescence microscopy.
(§3) Exflagellation centres and female gametes were quantified using custom image analysis pipelines developed within ICY Bioimage Analysis (https://icy.bioimageanalysis.org/).

[2] = test system: P. falciparum male gametocytes; test: P. falciparum Dual Gamete Formation Assay (PfDGFA), male readout (exflagellation); type: cell-based, Plasmodium falciparum NF54; conditions: for Selectivity Ratio M: HepG2 Tox50 versus male IC50; for inhibition at 2 µM / IC50: Plasmodium falciparum; for inhibition at 2 µM: 24h preincubation with gametocytes; for IC50: PfDGFA, 24 h incubation with gametocytes before induction, exflagellation readout, read-out: Male IC50
Protocol: as §1, §2, §3

[3] = PfDGFA at 2µM, 24h preincubation with gametocytes prior to induction of gametogenesis, replicate R1
[4] = PfDGFA at 2µM, 24h preincubation with gametocytes prior to induction of gametogenesis, replicate R3
[5] = PfDGFA at 2µM, 24h preincubation with gametocytes prior to induction of gametogenesis, replicate R4
[6] = PfDGFA at 2µM, 24h preincubation, average of replicates
[7] = 2µM, 24h preincubation with gametocytes prior to induction of gametogenesis, average of replicates
[8] = 2µM, 24h preincubation with gametocytes prior to induction of gametogenesis, replicate R1
[9] = 2µM, 24h preincubation with gametocytes prior to induction of gametogenesis, replicate R3
[10] = 2µM, 24h preincubation with gametocytes prior to induction of gametogenesis, replicate R4
[11] = PfDGFA at 2µM, average of replicates, read-out: Average inhibition female (%)
[12] = PfDGFA at 2µM, replicate R1, read-out: % inhibition female (individual replicates) R1
[13] = PfDGFA at 2µM, replicate R2, read-out: % inhibition female (individual replicates) R2
[14] = PfDGFA at 2µM, replicate R3, read-out: % inhibition female (individual replicates) R3
[15] = PfDGFA at 2µM, replicate R4, read-out: % inhibition female (individual replicates) R4
[16] = number of replicates with >50% inhibition in the female readout, 2µM
[17] = PfDGFA at 2µM, average of replicates, read-out: Average inhibition male (%)
[18] = PfDGFA at 2µM, replicate R1, read-out: % inhibition male (individual replicates) R1
[19] = PfDGFA at 2µM, replicate R2, read-out: % inhibition male (individual replicates) R2
[20] = PfDGFA at 2µM, replicate R3, read-out: % inhibition male (individual replicates) R3
[21] = PfDGFA at 2µM, replicate R4, read-out: % inhibition male (individual replicates) R4
[22] = number of replicates with >50% inhibition in the male readout, 2µM

Compound: CCCCOc1ccc(N2C(N)=NC(N)=NC2(C)C)cc1.Cl [TCMDC-124279]
- % inhibition female (individual replicates) R1 [1, 3]: 2.1%
- % inhibition female (individual replicates) R3 [1, 4]: -37.2%
- % inhibition female (individual replicates) R4 [1, 5]: 21.1%
- Average inhibition female (%) [1, 6]: -3.8%
- % inhibition male (individual replicates) R1 [2, 3]: -7.3%
- % inhibition male (individual replicates) R3 [2, 4]: -37.1%
- % inhibition male (individual replicates) R4 [2, 5]: -28.5%
- Average inhibition male (%) [2, 6]: -17.0%

Compound: CCOC(=O)c1cc(C(=O)OC)c2ccccn12 [TCMDC-124299]
- % inhibition female (individual replicates) R1 [1, 3]: 6.3%
- % inhibition female (individual replicates) R3 [1, 4]: -21.8%
- % inhibition female (individual replicates) R4 [1, 5]: 0.07%
- Average inhibition female (%) [1, 6]: -2.7%
- % inhibition male (individual replicates) R1 [2, 3]: 15.7%
- % inhibition male (individual replicates) R3 [2, 4]: -23.4%
- % inhibition male (individual replicates) R4 [2, 5]: -23.1%
- Average inhibition male (%) [2, 6]: -9.0%

Compound: [O-][S+]1c2ccccc2Sc2ccccc21 [TCMDC-124300]
- % inhibition female (individual replicates) R1 [1, 3]: 9.4%
- % inhibition female (individual replicates) R3 [1, 4]: -8.0%
- % inhibition female (individual replicates) R4 [1, 5]: -1.0%
- Average inhibition female (%) [1, 6]: -3.0%
- % inhibition male (individual replicates) R1 [2, 3]: 13.3%
- % inhibition male (individual replicates) R3 [2, 4]: 4.0%
- % inhibition male (individual replicates) R4 [2, 5]: -37.1%
- Average inhibition male (%) [2, 6]: -9.5%

Compound: CCCCNS(=O)(=O)c1ccc(NC(=O)c2cc([N+](=O)[O-])ccc2Cl)cc1 [TCMDC-124345]
- Selectivity ratio F [1]: 13.22
- inhibition at 2 µM ([1]; 2µM, average of replicates, read-out: Average inhibition female (%)): 20%
- inhibition at 2 µM ([1]; 2µM, replicate R1, read-out: % inhibition female (individual replicates) R1): 27.9%
- inhibition at 2 µM ([1]; 2µM, replicate R2, read-out: % inhibition female (individual replicates) R2): 30.3%
- inhibition at 2 µM ([1]; 2µM, replicate R3, read-out: % inhibition female (individual replicates) R3): 6.6%
- inhibition at 2 µM ([1]; 2µM, replicate R4, read-out: % inhibition female (individual replicates) R4): 15%
- IC50 [1]: 7.56 µM
- Selectivity Ratio M [2]: 267.48
- inhibition at 2 µM ([2]; 2µM, average of replicates, read-out: Average inhibition male (%)): 100%
- inhibition at 2 µM ([2]; 2µM, replicate R1, read-out: % inhibition male (individual replicates) R1): 101%
- inhibition at 2 µM ([2]; 2µM, replicate R2, read-out: % inhibition male (individual replicates) R2): 102%
- inhibition at 2 µM ([2]; 2µM, replicate R3, read-out: % inhibition male (individual replicates) R3): 100%
- inhibition at 2 µM ([2]; 2µM, replicate R4, read-out: % inhibition male (individual replicates) R4): 98.2%
- IC50 [2]: 0.37 µM

Compound: CC(=O)Nc1ccc(Nc2c3ccccc3nc3ccccc23)cc1 [TCMDC-124356]
- Average inhibition female (%) [1, 7]: 14.4%
- % inhibition female (individual replicates) R1 [1, 8]: 47.3%
- % inhibition female (individual replicates) R3 [1, 9]: 8.8%
- % inhibition female (individual replicates) R4 [1, 10]: 12.0%
- HitlevelF ([1]; 2µM, 24h preincubation, hits selected on >50% inhibition in the female readout across replicates): 0
- Average inhibition male (%) [2, 7]: 30.9%
- % inhibition male (individual replicates) R1 [2, 8]: 50.9%
- % inhibition male (individual replicates) R4 [2, 10]: -15.9%
- HitlevelM ([2]; 2µM, 24h preincubation, hits selected on >50% inhibition in the male readout across replicates): 2
- Activity ([2]; PfDGFA at 2µM, 24h preincubation, hit = >50% inhibition in male or female readout in at least 3 replicates, 0 = no class assigned): 0

Compound: CC(C)(C)Nc1cc(C2CC2)nc(-c2ccccn2)n1 [TCMDC-124453]
- Average inhibition female (%) [1, 7]: 32.5%
- % inhibition female (individual replicates) R1 [1, 8]: 36.3%
- % inhibition female (individual replicates) R3 [1, 9]: 27.2%
- % inhibition female (individual replicates) R4 [1, 10]: 34.1%
- HitlevelF ([1]; 2µM, 24h preincubation, number of replicates with >50% inhibition in the female readout): 0
- Average inhibition male (%) [2, 7]: 8.7%
- % inhibition male (individual replicates) R1 [2, 8]: 15.7%
- % inhibition male (individual replicates) R3 [2, 9]: 8.7%
- % inhibition male (individual replicates) R4 [2, 10]: 17.6%
- HitlevelM ([2]; 2µM, 24h preincubation, number of replicates with >50% inhibition in the male readout): 0

Compound: Cc1ccc(-c2nnc3c4ccccc4c(C)nn23)cc1S(=O)(=O)N1CCN(CCO)CC1 [TCMDC-124482]
- % inhibition female (individual replicates) R1 [1, 3]: 11.9%
- % inhibition female (individual replicates) R3 [1, 4]: -40.2%
- % inhibition female (individual replicates) R4 [1, 5]: 14.7%
- Average inhibition female (%) [1, 6]: -3.6%
- % inhibition male (individual replicates) R1 [2, 3]: 14.3%
- % inhibition male (individual replicates) R3 [2, 4]: -2.0%
- % inhibition male (individual replicates) R4 [2, 5]: 34.9%
- Average inhibition male (%) [2, 6]: 14.9%

Compound: Cn1c(Sc2ncnc3sccc23)nc2ccccc21 [TCMDC-124514]
- Selectivity ratio F [1]: 179.15
- inhibition at 2 µM [1, 11]: 56.9%
- inhibition at 2 µM [1, 12]: 48.2%
- inhibition at 2 µM [1, 13]: 73.8%
- inhibition at 2 µM [1, 14]: 37.5%
- inhibition at 2 µM [1, 15]: 68.1%
- IC50 [1]: 0.56 µM
- HitlevelF [1, 16]: 2
- Selectivity Ratio M [2]: 138.65
- inhibition at 2 µM [2, 17]: 74.4%
- inhibition at 2 µM [2, 18]: 82.1%
- inhibition at 2 µM [2, 19]: 75.9%
- inhibition at 2 µM [2, 20]: 86.7%
- inhibition at 2 µM [2, 21]: 52.9%
- IC50 [2]: 0.72 µM
- HitlevelM [2, 22]: 4

Compound: O=C(NC1CCN(Cc2ccccc2)CC1)c1cc(C(=O)NC2CCN(Cc3ccccc3)CC2)cc(C(=O)NC2CCN(Cc3ccccc3)CC2)c1 [TCMDC-124568]
- Selectivity ratio F [1]: 10.00
- inhibition at 2 µM [1, 11]: 37.6%
- inhibition at 2 µM [1, 12]: 24.6%
- inhibition at 2 µM [1, 13]: 60.5%
- inhibition at 2 µM [1, 14]: 22.2%
- inhibition at 2 µM [1, 15]: 43.3%
- IC50 [1]: > 10 µM
- HitlevelF [1, 16]: 1
- Selectivity Ratio M [2]: 12.97
- inhibition at 2 µM [2, 17]: 80%
- inhibition at 2 µM [2, 18]: 85%
- inhibition at 2 µM [2, 19]: 82%
- inhibition at 2 µM [2, 20]: 68.9%
- inhibition at 2 µM [2, 21]: 84.2%
- IC50 [2]: 7.71 µM
- HitlevelM [2, 22]: 4

Reference: PMC10584170, “Machine learning-based phenotypic imaging to characterise the targetable biology of Plasmodium falciparum male gametocytes for the development of transmission-blocking antimalarials” (PLOS Pathogens, 2023)
